Measured values published in PubChem BioAssay AID248 (DTP/NCI, 2004).
Several values for one entry are separate records, joined by “and”; a condition that tells them apart may be missing. Identical values can stand only once. Inconclusive results and toxic doses are left out. Cut-off read from the data, not from the text of the source: active = T/C of 150% or more; inactive = T/C below 125%.

Tested on: L1210 leukemia ip in BDF1 mice, survival T/C
Experiment: NCI In Vivo Anticancer Drug Screen. Data for tumor model L1210 Leukemia (intraperitoneal) in B6D2F1 (BDF1) mice
Conditions: endpoint: mean survival time, higher = longer survival
How it was run: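 Transplanted-tumor mice were given test agent; controls received vehicle only. Survival readings from the two groups were divided (treated over control).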

[1] = dose: 100.0 mg/kg/injection, schedule: Q01DX001 (ip), vehicle: saline
[2] = dose: 200.0 mg/kg/injection, schedule: Q01DX001 (ip), vehicle: saline
[3] = dose: 400.0 mg/kg/injection, schedule: Q01DX001 (ip), vehicle: saline
[4] = dose: 100.0 mg/kg/injection, schedule: Q04DX003 (ip), vehicle: saline with Tween-80
[5] = dose: 200.0 mg/kg/injection, schedule: Q04DX003 (ip), vehicle: saline with Tween-80
[6] = dose: 400.0 mg/kg/injection, schedule: Q04DX003 (ip), vehicle: saline with Tween-80
[7] = dose: 25.0 mg/kg/injection, schedule: Q01DX009 (ip), vehicle: saline
[8] = dose: 50.0 mg/kg/injection, schedule: Q01DX009 (ip), vehicle: saline
[9] = dose: 50.0 mg/kg/injection, schedule: Q04DX003 (ip), vehicle: saline
[10] = dose: 100.0 mg/kg/injection, schedule: Q04DX003 (ip), vehicle: saline
[11] = dose: 50.0 mg/kg/injection, schedule: Q01DX009 (ip), vehicle: Klucel (hydroxypropylcellulose) (HPC)
[12] = dose: 100.0 mg/kg/injection, schedule: Q01DX009 (ip), vehicle: Klucel (hydroxypropylcellulose) (HPC)
[13] = dose: 200.0 mg/kg/injection, schedule: Q01DX009 (ip), vehicle: Klucel (hydroxypropylcellulose) (HPC)
[14] = dose: 100.0 mg/kg/injection, schedule: Q04DX003 (ip), vehicle: Klucel (hydroxypropylcellulose) (HPC)
[15] = dose: 200.0 mg/kg/injection, schedule: Q04DX003 (ip), vehicle: Klucel (hydroxypropylcellulose) (HPC)
[16] = dose: 400.0 mg/kg/injection, schedule: Q01DX009 (ip), vehicle: Klucel (hydroxypropylcellulose) (HPC)
[17] = dose: 400.0 mg/kg/injection, schedule: Q04DX003 (ip), vehicle: Klucel (hydroxypropylcellulose) (HPC)
[18] = dose: 25.0 mg/kg/injection, schedule: Q04DX002 (ip), vehicle: Klucel (hydroxypropylcellulose) (HPC)
[19] = dose: 50.0 mg/kg/injection, schedule: Q04DX002 (ip), vehicle: Klucel (hydroxypropylcellulose) (HPC)
[20] = dose: 100.0 mg/kg/injection, schedule: Q04DX002 (ip), vehicle: Klucel (hydroxypropylcellulose) (HPC)
[21] = dose: 100.0 mg/kg/injection, schedule: Q01DX001 (ip), vehicle: carboxymethylcellulose (CMC)
[22] = dose: 100.0 mg/kg/injection, schedule: Q01DX009 (ip), vehicle: saline with Tween-80
[23] = dose: 200.0 mg/kg/injection, schedule: Q01DX001 (ip), vehicle: carboxymethylcellulose (CMC)
[24] = dose: 200.0 mg/kg/injection, schedule: Q01DX009 (ip), vehicle: saline with Tween-80
[25] = dose: 400.0 mg/kg/injection, schedule: Q01DX001 (ip), vehicle: carboxymethylcellulose (CMC)
[26] = dose: 400.0 mg/kg/injection, schedule: Q01DX009 (ip), vehicle: saline with Tween-80

Measured: T/C

OCCCN=Cc1cc(Cl)cc(Cl)c1O
inactive: [1] 98 % of control | [2] 95 % of control | [3] 93 % of control

CCOC(=O)NC(C)(C)CN(C(=O)OCC)c1ccccc1
inactive: [4] 111 % of control | [5] 108 % of control | [6] 106 % of control

CCCCCC(CN(C)C)C(O)/C=C/c1ccccc1Cl (centres undefined)
inactive: [7] 102 % of control | dose: 25.0 mg/kg/injection, schedule: Q04DX003 (ip), vehicle: saline 96 % of control | [8] 94 % of control | [9] 97 % of control | [10] 95 % of control and 88 % of control

CN(C)C(=O)C(OCc1ccccc1)C(OCc1ccccc1)C(OCc1ccccc1)C(O)COCc1ccccc1 (centres undefined)
inactive: [11] 88 % of control | [12] 96 % of control | [13] 100 % of control

CCOC(=O)C(C)N (centres undefined)
inactive: [12] 93 % of control | [14] 105 % of control | [13] 93 % of control | [15] 102 % of control | [16] 97 % of control | [17] 97 % of control

CC(C)C(CCN1CCCC1)(C(N)=O)c1cccc2ccccc12 (centres undefined)
inactive: [11] 112 % of control | [12] 105 % of control | [14] 98 % of control | [13] 112 % of control | [15] 95 % of control

CN(CCCl)CC1C(c2ccccc2)C1c1ccccc1 (centres undefined)
inactive: [18] 103 % of control | [19] 111 % of control | [20] 107 % of control and 111 % of control

CCOC(=O)N(CC)c1ccccc1
inactive: [12] 103 % of control | [10] 88 % of control | [13] 107 % of control | dose: 200.0 mg/kg/injection, schedule: Q04DX003 (ip), vehicle: saline 101 % of control | [16] 102 % of control | dose: 400.0 mg/kg/injection, schedule: Q04DX003 (ip), vehicle: saline 98 % of control

O=C1C(c2ccccc2)=c2c(c3ccccc3c3ccccc23)=C1c1ccccc1
inactive: dose: 50.0 mg/kg/injection, schedule: Q01DX001 (ip), vehicle: carboxymethylcellulose (CMC) 103 % of control and 100 % of control | [21] 100 % of control and 97 % of control | [22] 96 % of control | [23] 100 % of control and 97 % of control | [24] 90 % of control | [25] 94 % of control | [26] 93 % of control

Cc1c(C)c2c(c(C)c1O)CC(CO)CO2 (centres undefined)
inactive: dose: 100.0 mg/kg/injection, schedule: Q01DX001 (ip), vehicle: saline with Tween-80 92 % of control | dose: 200.0 mg/kg/injection, schedule: Q01DX001 (ip), vehicle: saline with Tween-80 101 % of control | dose: 400.0 mg/kg/injection, schedule: Q01DX001 (ip), vehicle: saline with Tween-80 87 % of control

COC(=O)CN(C(=O)c1ccc(OC(C)=O)cc1)c1ccccc1
inactive: [14] 100 % of control | [15] 94 % of control | [17] 96 % of control

c1ccc(OCC2(N3CCCCC3)CCCC2)cc1
inactive: dose: 100.0 mg/kg/injection, schedule: Q04DX002 (ip), vehicle: saline with Tween-80 97 % of control

Cc1cc(=O)oc2cc(OC(=O)Nc3ccccc3)ccc12
inactive: dose: 100.0 mg/kg/injection, schedule: Q01DX001 (ip), vehicle: Klucel (hydroxypropylcellulose) (HPC) 93 % of control | [12] 94 % of control and 105 % of control | [20] 108 % of control and 118 % of control | [14] 105 % of control | dose: 200.0 mg/kg/injection, schedule: Q01DX001 (ip), vehicle: Klucel (hydroxypropylcellulose) (HPC) 104 % of control | [13] 98 % of control | dose: 200.0 mg/kg/injection, schedule: Q04DX002 (ip), vehicle: Klucel (hydroxypropylcellulose) (HPC) 112 % of control and 92 % of control | [15] 100 % of control | dose: 400.0 mg/kg/injection, schedule: Q01DX001 (ip), vehicle: Klucel (hydroxypropylcellulose) (HPC) 108 % of control | [17] 92 % of control

NC(CSS(=O)(=O)O)=NCCC1=NCCN1
inactive: dose: 25.0 mg/kg/injection, schedule: Q04DX002 (ip), vehicle: saline 101 % of control | dose: 50.0 mg/kg/injection, schedule: Q04DX002 (ip), vehicle: saline 101 % of control | dose: 100.0 mg/kg/injection, schedule: Q04DX002 (ip), vehicle: saline 101 % of control | dose: 200.0 mg/kg/injection, schedule: Q04DX002 (ip), vehicle: saline 96 % of control and 107 % of control | dose: 400.0 mg/kg/injection, schedule: Q04DX002 (ip), vehicle: saline 115 % of control

Cc1cc(C)c(S(=O)(=O)O)c(Cc2cccc3ccccc23)c1
inactive: [7] 94 % of control | [8] 102 % of control | [9] 94 % of control | [1] 93 % of control | dose: 100.0 mg/kg/injection, schedule: Q01DX009 (ip), vehicle: saline 96 % of control | [10] 98 % of control | [2] 88 % of control

CC(=O)Oc1ccc(CCNC(c2ccccc2)c2ccccc2)cc1OC(C)=O
inactive: [1] 100 % of control | [2] 107 % of control | [3] 86 % of control

CCCCCCCCOc1ccc(C(=O)O)cc1
inactive: [22] 96 % of control | [24] 96 % of control | [26] 92 % of control

O=C(CCCCCCC(=O)C[N+]12CCC(CC1)C(O)C2)C[N+]12CCC(CC1)C(O)C2 (centres undefined)
inactive: dose: 0.15 mg/kg/injection, schedule: Q04DX003 (ip), vehicle: saline 102 % of control | dose: 0.3 mg/kg/injection, schedule: Q04DX003 (ip), vehicle: saline 100 % of control | dose: 0.6 mg/kg/injection, schedule: Q04DX003 (ip), vehicle: saline 102 % of control

NC(=O)C(c1ccccc1)C1(O)CCCCC1 (centres undefined)
inactive: dose: 50.0 mg/kg/injection, schedule: Q01DX001 (ip), vehicle: saline 102 % of control | [1] 104 % of control | [2] 96 % of control | [3] 91 % of control

O=C(COc1cc(Cl)c(Cl)cc1Cl)OCCN(CCOC(=O)COc1cc(Cl)c(Cl)cc1Cl)C(=O)COc1ccc(Cl)cc1
inactive: dose: 100.0 mg/kg/injection, schedule: Q01DX009 (ip), vehicle: other 92 % of control | dose: 200.0 mg/kg/injection, schedule: Q01DX009 (ip), vehicle: other 92 % of control | dose: 400.0 mg/kg/injection, schedule: Q01DX009 (ip), vehicle: other 102 % of control

CC(=O)N1Cc2ccc(C=O)n2Cc2cc3c(cc21)OCO3
inactive: [18] 96 % of control | [19] 104 % of control | [20] 110 % of control

C=CCN(C(=O)OCC)c1ccccc1
inactive: [12] 110 % of control | [14] 95 % of control | [13] 108 % of control | [15] 106 % of control | [16] 93 % of control | [17] 106 % of control

C#CC1(O)CC[C@H]2[C@@H]3CCC4=CCCC[C@@H]4[C@H]3CC[C@@]21C (some centres undefined)
inactive: [21] 103 % of control | [23] 96 % of control | [25] 91 % of control

CC#CC(O)(C(=O)OC)c1ccccc1 (centres undefined)
inactive: [21] 94 % of control | [23] 102 % of control | [25] 108 % of control

C(=N\Nc1nnn(Cc2ccccc2)n1)/c1ccccc1
inactive: [22] 95 % of control | [4] 110 % of control | [24] 102 % of control | [5] 102 % of control | [26] 93 % of control | [6] 90 % of control

Cc1cc2c(-c3ccccc3)nc3ccccc3n2c1Cl
inactive: [11] 92 % of control | [12] 95 % of control | [13] 103 % of control

Nc1ccccc1S(=O)(=O)F
inactive: dose: 75.0 mg/kg/injection, schedule: Q04DX003 (ip), vehicle: Klucel (hydroxypropylcellulose) (HPC) 100 % of control | [21] 98 % of control | dose: 150.0 mg/kg/injection, schedule: Q04DX003 (ip), vehicle: Klucel (hydroxypropylcellulose) (HPC) 94 % of control | [23] 98 % of control | dose: 300.0 mg/kg/injection, schedule: Q04DX003 (ip), vehicle: Klucel (hydroxypropylcellulose) (HPC) 96 % of control | [25] 101 % of control
